Measurements reported in publication PMC5451387, “Structural insights into the elevator-like mechanism of the sodium/citrate symporter CitS” (Scientific Reports, 2017).

Biological target: T1, KpCitS (Klebsiella pneumoniae, UniProt P31602)
T1 construct: gene citS; homodimer; TM7-TM8 loop not modelled
T1 sequence (P31602 1-446): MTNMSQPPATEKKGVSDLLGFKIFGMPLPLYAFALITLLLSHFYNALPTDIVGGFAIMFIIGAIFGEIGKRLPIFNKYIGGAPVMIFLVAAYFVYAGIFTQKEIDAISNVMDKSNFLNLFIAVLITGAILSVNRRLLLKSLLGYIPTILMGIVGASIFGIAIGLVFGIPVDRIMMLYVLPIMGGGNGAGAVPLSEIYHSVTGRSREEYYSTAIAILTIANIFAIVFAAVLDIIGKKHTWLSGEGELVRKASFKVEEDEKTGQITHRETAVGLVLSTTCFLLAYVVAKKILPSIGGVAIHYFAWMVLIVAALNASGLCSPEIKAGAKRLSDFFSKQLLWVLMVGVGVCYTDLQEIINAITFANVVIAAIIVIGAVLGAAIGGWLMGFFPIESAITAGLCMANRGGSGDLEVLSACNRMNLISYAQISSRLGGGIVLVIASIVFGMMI
Test: X-ray crystal structures, […]-4.[…] A
Type: binding
Details: sodium-containing buffer; bound at the transport-domain site in outward-facing and asymmetric forms; one citrate per protomer

O=C(O)CC(O)(CC(=O)O)C(=O)O [citrate]
X-ray crystal structures, 3.5-4.0 A: Each KpCitS protomer binds one molecule of citrate in the outward-facing and asymmetric conformations
